Laboratory results taken from patent publication US20200121620A1, “SENOLYTIC COMPOUNDS” (UNITED KINGDOM RESEARCH AND INNOVATION, priority 2017, published 2020).
Where a name gives a salt, the structure may show the parent alone.

Tests used:
[1] = in vivo; cited from earlier work
[2] = cited from earlier work
IMR90 ER:RAS cells [3] = experiment: Senolytic activity in IMR90 ER:RAS cells undergoing oncogene-induced senescence (4OHT) vs DMSO-treated non-senescent cells; details: for death of cells undergoing oncogene induced senescence: 100 nM 4OHT, treated 6 days after induction at indicated concentrations, FIG. 18; for ability of FAK inhibitors to kill differentially senescent cells (4OHT induced) vs non-senescent cells (DMSO treated): FIG. 12; for senolytic properties: selective reduction of senescent (+4OHT) vs normal (−4OHT) cell numbers: 10 μM added 6 days after 100 nM 4OHT, cell numbers 4 days after (DAPI or crystal violet), FIG. 1, FIG. 10
Method: FIG. 1: (A) IMR90 ER:RAS cells were induced to undergo senescence by treating them with 100 nM 4OHT for 6 days. At that point, 10 μM of the indicated drugs was added. In parallel, the same treatments were carried out in IMR90 ER:RAS cells treated with DMSO (−4OHT). […] Cells were fixed at day 6, 8 and 10 after 4OHT induction and stained with crystal violet to assess cell viability. T, Tyr-AG879; P, PF-573228; C, Cyclosporine. (B) A similar experiment to (A) was conducted and cells at day 10 post-induction were fixed and stained with DAPI to assess cell numbers
In the setup used, IMR90 ER:RAS cells were treated with 100 nM 4OHT to induce OIS (oncogene induced senescence) and activate the ER:RAS fusion protein. 6 days after 4OHT induction (+4OHT), once cells were fully senescent, the agents to be tested were added at a concentration of 10 μM, and cell numbers were assessed 4 days after by DAPI stained couple to automated microscopy. Alternatively, cells were fixed and stained with crystal violet. In parallel, the same treatments were carried out in IMR90 ER:RAS cells treated with DMSO (−4OHT).
IMR90 ER:RAS cells were induced to undergo senescence by treating them with 100 nM 4OHT for 6 days. At that point, 10 μM of the indicated drugs was added. In parallel, the same treatments were carried out in IMR90 ER:RAS cells treated with DMSO (−4OHT). […] Cells were fixed at day 6, 8 and 10 after 4OHT induction and stained with crystal violet to assess cell viability. A similar experiment was conducted and cells at day 10 post-induction were fixed and stained with DAPI to assess cell numbers (see FIG. 1).

[4] = system: IMR90 cells undergoing OIS; experiment: Western blot of cleaved caspase 3 in IMR90 cells undergoing OIS; format: cell-based, human; details: FIG. 17
From the text: Western blot showing cleaved caspase 3 upon treatment of IMR90 cells undergoing OIS with cardiac glycosides.

[5] = system: IMR90 Cherry and IMR90 ER:RAS GFP cells; experiment: Mixed cultures of normal (IMR90 Cherry) and senescent (IMR90 ER:RAS GFP) cells; format: cell-based, human; details: IMR90 Cherry mixed with IMR90 ER:RAS GFP, 4OHT; FIG. 14
From the text: FIG. 14: Senolytic agents JFD 00244 and Rottlerin specifically eliminate senescent cells in mixed cultures containing normal and senescent cells. (A) Setup of the experiments, in which normal cells (IMR90 Cherry) are mixed with IMR90 ER:RAS GFP cells (which become senescent in the presence of 4OHT). (B) Representative pictures showing the mixed cultures treated with the indicated drugs. In the bottom row, upon 4OHT the IMR90 ER:RAS GFP cells are senescent. (C) Quantification of the IMR90 Cherry (left bar) and IMR90 ER:RAS GFP (right bar) in the mixed cultures.
The above experiments were all performed comparing the effects of the drugs in cultures of normal and senescent cells. To understand whether the drugs selectively kill senescent cells from a mixed culture, experiments were conducted using Cherry-labelled normal IMR90 cells and GFP labelled IMR90 ER:RAS cells that could be induced to undergo senescence upon treatment with 4OHT (FIG. 14A).
Compounds JFD 00244 and Rottlerin specifically eliminate senescent cells in mixed cultures containing normal and senescent cells (see FIG. 14). (A) Setup of the experiments, in which normal cells (IMR90 Cherry) are mixed with IMR90 ER:RAS GFP cells (which become senescence in the presence of 4OHT). […] (C) Quantification of the IMR90 Cherry and IMR90 ER:RAS GFP in the mixed cultures.

[6] = system: senescent cells in the lung; experiment: Elimination of senescent cells induced by Doxorubicin treatment in mice; format: in vivo; details: single dose 10 mg/kg Doxorubicin; 2 months later treated for 4 consecutive days; FIG. 15
Method: (A) Experimental set up, mice (n=5 per group) were administered with a single dose of 10 mg/kg of Doxorubicin. […] (B) Cryosections of lungs obtained from control and doxorubicin treated mice were stained with hematoxilin and eosin (to reveal tissue architecture), and SA-β-Gal (to reveal senescent cells). Senescent cells accumulate in the bronchioles of doxorubicin-treated mice. (C) Quantification of the lung area positive for SA-β-Gal staining. […] (D) Representative pictures of lung cryosections.
Further experiments investigated whether the senolytic agents were capable of eliminating senescent cells in vivo. […] These senescent cells are responsible for some of the side-effects associated with chemotherapy and can fuel the growth of cancerous cells (Demaria et al., 2016). […] Doxorubicin treatment induces senescence in the lung.

[7] = system: senescent cells in the lung; experiment: Elimination of senescent cells induced by whole body irradiation in mice; format: in vivo; details: 6 Gray whole body irradiation; 2 months later treated for 4 consecutive days; FIG. 16
From the text: (A) Experimental set up, mice (n=5 per group) were irradiated with 6 Gray to induce senescence. […] (B) Cryosections of lungs obtained from control and irradiated mice were stained with hematoxilin and eosin (to reveal tissue architecture), and SA-β-Gal (to reveal senescent cells). Senescent cells accumulate in the bronchioles of irradiated mice. (C) Quantification of the lung area positive for SA-β-Gal staining. […] (D). Representative pictures of lung cryosections.
Whole-body irradiation is known to cause senescence. In irradiated mice, senescent cells accumulate in different tissues, including the lung (Chang et al., 2016; Yosef et al., 2016).

old mice = experiment: Intermittent ouabain treatment of old mice (ageing experiment); format: in vivo
Method: (A) 24 month old female mice were subjected to the schedule summarized in this panel. […] (B) Results of rotarod test that assess the physical fitness and coordination of mice. Left bar=saline, right bar=Ouabain.
The concentrations of Albumin (A), Amylase (B) and PHOS (C) on plasma were measured in mice from the aging experiment described in FIG. 21A. 90 days old female mice were included as a comparison (young).

[8] = system: Nras^G12V-positive senescent hepatocytes; experiment: Model of liver cancer initiation (NrasG12V hydrodynamic tail vein injection); format: in vivo; details: CB17 SCID/beige mice, 1 mg/kg ip for 3 days from day 5, livers day 9
From the text: (A) CB17 SCID/beige mice immunosuppressed mice were subjected to hydrodynamic tail vein injection to express NrasG12V on the liver and induce oncogene-induced senescence on hepatocytes as described in Kang et al (Nature 2011, PMID: 22080947).

IMR90 ER:RAS cells [9] = experiment: Senolysis in presence or absence of pan-caspase inhibitor QVD (apoptosis); format: cell-based, human; details: 2 or 3 days treatment, with or without QVD; FIG. 13
Method: FIG. 13: Several of the senolytic agents kill senescent cells by inducing apoptosis. […] Consequently cells were treated with DMSO, ABT-263 or the indicated senolytics for 2 (A) or 3 days (B) in the presence (right bar) or absence (left bar) of the pan-caspase inhibitor QVD. Treatment of senescent cells with senolytics kills them, but is prevented in the case of PF-573228, rottlerin and rotenone by pre-treatment with the pan-caspase inhibitor QVD. ABT, ABT-263; PF, PF-573228; JFD, JFD 00244; DPI, diphenyleneiodonium.
Experiments were conducted to investigate the mechanism by which the senolytics caused the elimination of senescent cells using a pan-caspase inhibitor (QVD).
Several of the agents described herein kill senescent cells by inducing apoptosis. […] Consequently, cells were treated with DMSO, ABT-263 or the indicated senolytics for 2 (A) or 3 days (B) in the presence or absence of the pan-caspase inhibitor QVD. Treatment of senescent cells with senolytics kills them, but is prevented in the case of PF-573228, rottlerin and rotenone by pre-treatment with the pan-caspase inhibitor QVD (see FIG. 13).

Compound: CN(C)CC[C@H](CSc1ccccc1)Nc1ccc(S(=O)(=O)NC(=O)c2ccc(N3CCN(Cc4ccccc4-c4ccc(Cl)cc4)CC3)cc2)cc1[N+](=O)[O-] [ABT-737]
- oral bioavailability [1]: low
- solubility [2]: low

Compound: CC(C)c1c(C(=O)Nc2ccccc2)c(-c2ccccc2)c(-c2ccc(F)cc2)n1CC[C@@H](O)C[C@@H](O)CC(=O)O [Atorvastatin calcium]
- senolytic effect of statins, preferential killing of cells undergoing OIS (IMR90 ER:RAS cells [3]; 4OHT vs DMSO, FIG. 11): behaves as a senolytic in concentration dependent manner

Compound: C[C@]12CC[C@H](O)C[C@H]1CC[C@@H]1[C@@H]2CC[C@]2(C)[C@@H](c3ccc(=O)oc3)CC[C@]12O [Bufalin, (3β,5β)-3,14-Dihydroxybufa-20,22-dienolide]
- death of cells undergoing oncogene induced senescence (IMR90 ER:RAS cells [3]): dose-dependent death of cells undergoing oncogene induced senescence

Compound: CNC(=O)c1ccc(Nc2ncc(C(F)(F)F)c(NCc3nccnc3N(C)S(C)(=O)=O)n2)cc1 [Defactinib]
- ability of FAK inhibitors to kill differentially senescent cells (4OHT induced) vs non-senescent cells (DMSO treated) (IMR90 ER:RAS cells [3]): preferentially kill senescent cells in a dose-dependent manner

Compound: C[C@H]1O[C@@H](O[C@H]2[C@@H](O)C[C@H](O[C@H]3[C@@H](O)C[C@H](O[C@H]4CC[C@@]5(C)[C@H](CC[C@@H]6[C@@H]5C[C@@H](O)[C@]5(C)[C@@H](C7=CC(=O)OC7)CC[C@]65O)C4)O[C@@H]3C)O[C@@H]2C)C[C@H](O)[C@@H]1O [Digoxin]
- cleaved caspase 3 (apoptosis in senescent cells) [4]: induces apoptosis in senescent cells
- death of cells undergoing oncogene induced senescence (IMR90 ER:RAS cells [3]): dose-dependent death of cells undergoing oncogene induced senescence

Compound: O=C1c2ccccc2C(=O)c2c(NCCc3ccc(O)cc3)ccc(NCCc3ccc(O)cc3)c21 [JFD00244, 1,4-Bis[(p-hydroxy-phenethyl)amino]-anthraquinone]
- selective elimination of senescent cells from mixed cultures [5]: selective elimination of senescent cells from the co-cultures

Compound: Nc1cc(N)c(N)cc1N [NSC 677249, 1,2,4,5- Benzenetetramine tetrahydrochloride]
- ability of FAK inhibitors to kill differentially senescent cells (4OHT induced) vs non-senescent cells (DMSO treated) (IMR90 ER:RAS cells [3]): preferentially kill senescent cells in a dose-dependent manner

Compound: C[C@@H]1O[C@@H](O[C@H]2C[C@@H](O)[C@]3(CO)[C@H]4[C@H](O)C[C@]5(C)[C@@H](C6=CC(=O)OC6)CC[C@]5(O)[C@@H]4CC[C@]3(O)C2)[C@H](O)[C@H](O)[C@H]1O [Ouabain]
- lung area positive for SA-β-Gal staining (senescent cells) [6]: partially eliminated
- lung area positive for SA-β-Gal staining (senescent cells) [7]: partially eliminated
- rotarod test (physical fitness and coordination) (old mice; 24 month old female mice, 1 mg/kg ip, 3 consecutive days on treatment weeks, FIG. 21): improves the physical fitness of old mice
- concentrations of Albumin, Amylase and PHOS on plasma (old mice; old mice of FIG. 21A vs young (90 days old), FIG. 22): reverts ageing-associated changes of metabolites in blood
- SA-β-Gal positive cells in the liver (old mice; old mice, FIG. 24): decreased senescence-associated β-galactosidase positive cells in the liver
- expression of Cdkn2a mRNA (p16Ink4a) (old mice; qRT-PCR, liver, kidney and muscle of old female mice, FIG. 23): can be reduced after ouabain treatment
- cleaved caspase 3 (apoptosis in senescent cells) [4]: induces apoptosis in senescent cells
- death of cells undergoing oncogene induced senescence (IMR90 ER:RAS cells [3]): dose-dependent death of cells undergoing oncogene induced senescence
- senolytic activity on adding KCl (increased intracellular K+) (IMR90 ER:RAS cells [3]; with KCl, FIG. 20A): prevented by increasing the intracellular K^+ concentration by adding KCl
- senolytic activity on inhibition of p38 (IMR90 ER:RAS cells [3]; with p38 inhibition, FIG. 20B): partially prevents the senolytic properties of ouabain
- SA-b-gal activity in liver ([8]; FIG. 25B): reduced
- p21-positive cells ([8]; FIG. 25C): reduced
- Nras-positive preneoplastic hepatocytes ([8]; FIG. 25D): reduced

Compound: CS(=O)(=O)c1cccc(CNc2nc(Nc3ccc4c(c3)CCC(=O)N4)ncc2C(F)(F)F)c1 [PF-573228, 6-[4-(3-methyane-sulfonyl-benzyl-amino)-5-trifluoro-methyl-pyrimidin-2-ylamino]-3,4-dihydro-1H-quinolin-2-one]
- elimination of senescent cells with pan-caspase inhibitor QVD (apoptosis induction) (IMR90 ER:RAS cells [9]): selectively induce apoptosis of senescent cells
- senolytic properties: selective reduction of senescent (+4OHT) vs normal (−4OHT) cell numbers (IMR90 ER:RAS cells [3]): showed the most promising senolytic properties
- ability of FAK inhibitors to kill differentially senescent cells (4OHT induced) vs non-senescent cells (DMSO treated) (IMR90 ER:RAS cells [3]): preferentially kill senescent cells in a dose-dependent manner

Compound: C=C(C)[C@H]1Cc2c(ccc3c2O[C@@H]2COc4cc(OC)c(OC)cc4[C@@H]2C3=O)O1 [Rotenone, (2R,6aS,12aS)-1,2,6,6a,12,12a-hexahydro-2-isopropenyl-8,9-dimethoxychromeno[3,4-b]furo(2,3-h)chromen-6-one]
- elimination of senescent cells with pan-caspase inhibitor QVD (apoptosis induction) (IMR90 ER:RAS cells [9]): selectively induce apoptosis of senescent cells

Compound: CC(=O)c1c(O)c(C)c(O)c(Cc2c(O)c3c(c(C(=O)/C=C/c4ccccc4)c2O)OC(C)(C)C=C3)c1O [Rottlerin]
- elimination of senescent cells with pan-caspase inhibitor QVD (apoptosis induction) (IMR90 ER:RAS cells [9]): selectively induce apoptosis of senescent cells
- selective elimination of senescent cells from mixed cultures [5]: selective elimination of senescent cells from the co-cultures

Compound: CC(C)(C)c1cc(/C=C(\C#N)C(N)=S)cc(C(C)(C)C)c1O [Tyrphostin AG879, (2E)-3-[3,5-Bis(1,1-dimethylethyl)-4-hydroxyphenyl]-2-cyano-2-propenethioamide]
- senolytic properties: selective reduction of senescent (+4OHT) vs normal (−4OHT) cell numbers (IMR90 ER:RAS cells [3]): showed the most promising senolytic properties

Compound: Cyclosporine
- senolytic properties: selective reduction of senescent (+4OHT) vs normal (−4OHT) cell numbers (IMR90 ER:RAS cells [3]): showed the most promising senolytic properties
